Data reported in patent US6355799B1, “Substituted benzene compounds, process for their preparation, and herbicidal and defoliant compositions containing them” (ISK Americas Incorporated, priority 1997, dated 2002).

Experiments:
Format in all cases: in vivo
[1] = tested on: upland rice (Oryza sp., var. Tebonnet, RICE); test: Post-emerge test, crop safety; details: post-emerge, 14 days after application, rating scale 0-100
Method in brief: (§1)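 Plants grown in 10 cm pots of sandy loam mix received acetone-dissolved compounds through a moving flat-fan nozzle. Doses ranged from 15 to 1000 g ai/ha. Pre-emerge pots were seeded one day earlier, post-emerge pots 8–21 days earlier. Fourteen days on, each pot was graded 0–100 for damage.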

[2] = tested on: field corn (Zea mays L., var. Dekalb 535, CORN); test: Post-emerge test, crop safety; details: post-emerge, 14 days after application, rating scale 0-100
Method in brief: as §1

[3] = tested on: barnyardgrass (Echinochloa crus-galli, ECHCG); test: Pre-emerge test, greenhouse herbicide activity screening; details: phytotoxicity rating 0-100, 14 days after application
Text: (§2) A standard greenhouse herbicide activity screening system was used to evaluate the herbicidal efficacy and crop safety of these test compounds. Seven broadleaf weed species including redroot pigweed (Amaranthus retroflexus, AMARE, velvetleaf (Abutilon theophrasti, ABUTH), sicklepod (Cassia obtusifolia, CASOB), ivyleaf morningglory (Ipomoea hederacea, IPOHE), lambsquarters (Chenopodium album, CHEAL), common ragweed (Ambrosia artemisizfolia L., AMBEL), and cocklebur (Xanthium strumarium, XANST) were used as test species. Four grass weed species including green foxtail (Setaria viridis, SETVI), barnyardgrass (Echinochloa crus-galli, ECHCG), johnsongrass (Sorghum halepense, SORHA), and large crabgrass (Digitaria sanguinalis, DIGSA) were also used. In addition, three crop species, field corn (Zea mays L., var. Dekalb 535, CORN), soybean (Glycine max L., var. Pella 86, SOY), and is upland rice (Oryza sp., var. Tebonnet, RICE) were included.
(§3) All plants were grown in 10 cm square plastic pots which were filled with a sandy loam soil mix. For pre-emerge tests, seeds were planted one day prior to application of the test compounds. For post-emerge tests, seeds were planted 8-21 days prior to the test to allow emergence and good foliage development prior to application of the test substances. At the time of the post-emerge application, plants of all species were usually at the 2-3 leaf stage of development.
(§4) All test compounds Were dissolved in acetone and applied to the test units in a volume of 187 l /ha. Test materials were applied at rates ranging from 15 g ai/ha to 1000 g ai/ha using a track sprayer equipped with a TJ8001E even flow flat fan spray nozzle. Plants were arranged on a shelf so that the top of the canopy (post-emerge) or top of the soil surface (pre-emerge) was 40-45 cm below the nozzle. Pressurized air was used to force the test solution through the nozzle as it was mechanically advanced (via electrically driven chain drive) over the top of all test plants/pots. This application simulates a typical commercial field herbicide application.
(§5) In the post-emerge test, a commercial non-ionic surfactant was also included (0.25% v/v) to enhance wetting of the leaf surfaces of target plants. Immediately after application, test units of the pre-emerge applications were watered at the soil surface to incorporate the test materials. Subsequently, these test units were bottom-watered. Post-emerge test units were always bottom-watered.
(§6) At 14 days after application of the test materials, phytotoxicity ratings were recorded. A rating scale of 0-100 was used as previously described in Research Methods in Weed Science, 2nd edition, B. Truelove, Ed., Southern Weed Science Society, Auburn University, Auburn, Ala. 1977. Briefly, “0” corresponds to no damage and “100” corresponds to complete death of all plants in the test unit. This scale was used both to determine efficacy against weed species and damage to crop species. Herbicide activity data for various compounds of this invention, which are shown by compound No. in Tables 1-8, are shown in Tables 11 and 12.

[4] = tested on: velvetleaf (Abutilon theophrasti, ABUTH); test: as above; details: phytotoxicity rating 0-100, 14 days after application
Text: as §2, §3, §4, §5, §6

[5] = tested on: lambsquarters (Chenopodium album, CHEAL); test: as above; details: phytotoxicity rating 0-100, 14 days after application
Text: as §2, §3, §4, §5, §6

[6] = tested on: sicklepod (Cassia obtusifolia, CASOB); test: as above; details: phytotoxicity rating 0-100, 14 days after application
Text: as §2, §3, §4, §5, §6

[7] = tested on: large crabgrass (Digitaria sanguinalis, DIGSA); test: as above; details: phytotoxicity rating 0-100, 14 days after application
Text: as §2, §3, §4, §5, §6

[8] = tested on: ivyleaf morningglory (Ipomoea hederacea, IPOHE); test: as above; details: phytotoxicity rating 0-100, 14 days after application
Text: as §2, §3, §4, §5, §6

[9] = tested on: green foxtail (Setaria viridis, SETVI); test: as above; details: phytotoxicity rating 0-100, 14 days after application
Text: as §2, §3, §4, §5, §6

[10] = tested on: upland rice (Oryza sp., var. Tebonnet, RICE); test: Pre-emerge test, crop safety; details: crop damage rating 0-100, 14 days after application
Method in brief: (§7)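 Applied at 15–1000 g ai/ha from acetone in 187 l/ha spray volume. Post-emergence applications included 0.25% v/v non-ionic surfactant and reached plants sown 8–21 days before. Pre-emergence applications were incorporated by surface watering. Efficacy or crop damage was rated on a 0–100 scale after 14 days.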

[11] = tested on: field corn (Zea mays L., var. Dekalb 535, CORN); test: Pre-emerge test, crop safety; details: crop damage rating 0-100, 14 days after application
Method in brief: as §7

[12] = tested on: redroot pigweed (Amaranthus retroflexus, AMARE); test: Pre-emerge test, greenhouse herbicide activity screening; details: phytotoxicity rating 0-100, 14 days after application
Method in brief: as §1

[13] = tested on: barnyardgrass (Echinochloa crus-galli, ECHCG); test: Post-emerge test, greenhouse herbicide activity screening; details: post-emerge, 14 days after application, rating scale 0-100
Text: as §2, §3, §4, §5, §6

[14] = tested on: velvetleaf (Abutilon theophrasti, ABUTH); test: as above; details: post-emerge, 14 days after application, rating scale 0-100
Text: as §2, §3, §4, §5, §6

[15] = tested on: lambsquarters (Chenopodium album, CHEAL); test: as above; details: post-emerge, 14 days after application, rating scale 0-100
Text: as §2, §3, §4, §5, §6

[16] = tested on: sicklepod (Cassia obtusifolia, CASOB); test: as above; details: post-emerge, 14 days after application, rating scale 0-100
Text: as §2, §3, §4, §5, §6

[17] = tested on: large crabgrass (Digitaria sanguinalis, DIGSA); test: as above; details: post-emerge, 14 days after application, rating scale 0-100
Text: as §2, §3, §4, §5, §6

[18] = tested on: redroot pigweed (Amaranthus retroflexus, AMARE); test: as above; details: post-emerge, 14 days after application
Text: as §2, §3, §4, §5, §6

[19] = tested on: ivyleaf morningglory (Ipomoea hederacea, IPOHE); test: as above; details: post-emerge, 14 days after application, rating scale 0-100
Text: as §2, §3, §4, §5, §6

[20] = tested on: green foxtail (Setaria viridis, SETVI); test: as above; details: post-emerge, 14 days after application, rating scale 0-100
Text: as §2, §3, §4, §5, §6

## COc1c(Cl)cc(F)c(-n2c(=O)cc(C(F)(F)F)n(C)c2=O)c1NC(=O)OC(C)c1ccccc1 (stereo not shown) [4-47]
[1]; 63 g ai/ha
  phytotoxicity rating RICE (crop damage): 30
[1]; 250 g ai/ha
  phytotoxicity rating RICE (crop damage): 60
[2]; 63 g ai/ha
  phytotoxicity rating CORN (crop damage): 30
[2]; 250 g ai/ha
  phytotoxicity rating CORN (crop damage): 65
[3]; 63 g ai/ha
  Pre-emerge Herbicidal Activity ECHCG: 60
[3]; 250 g ai/ha
  Pre-emerge Herbicidal Activity ECHCG: 98
[4]; 63 g ai/ha
  Pre-emerge Herbicidal Activity ABUTH: 100
[4]; 250 g ai/ha
  Pre-emerge Herbicidal Activity ABUTH: 100
[5]; 63 g ai/ha
  Pre-emerge Herbicidal Activity CHEAL: 100
[5]; 250 g ai/ha
  Pre-emerge Herbicidal Activity CHEAL: 100
[6]; 63 g ai/ha
  Pre-emerge Herbicidal Activity CASOB: 0
[6]; 250 g ai/ha
  Pre-emerge Herbicidal Activity CASOB: 70
[7]; 63 g ai/ha
  Pre-emerge Herbicidal Activity DIGSA: 70
[7]; 250 g ai/ha
  Pre-emerge Herbicidal Activity DIGSA: 100
[8]; 63 g ai/ha
  Pre-emerge Herbicidal Activity IPOHE: 30
[8]; 250 g ai/ha
  Pre-emerge Herbicidal Activity IPOHE: 100
[9]; 63 g ai/ha
  Pre-emerge Herbicidal Activity SETVI: 80
[9]; 250 g ai/ha
  Pre-emerge Herbicidal Activity SETVI: 100
[10]; 63 g ai/ha
  Pre-emerge Herbicidal Activity RICE: 20
[10]; 250 g ai/ha
  Pre-emerge Herbicidal Activity RICE: 70
[11]; 63 g ai/ha
  Pre-emerge Herbicidal Activity CORN: 30
[11]; 250 g ai/ha
  Pre-emerge Herbicidal Activity CORN: 90
[12]; 63 g ai/ha
  Pre-emerge Herbicidal Activity AMARE: 70
[12]; 250 g ai/ha
  Pre-emerge Herbicidal Activity AMARE: 100
[13]; 63 g ai/ha
  phytotoxicity rating ECHCG: 30
[13]; 250 g ai/ha
  phytotoxicity rating ECHCG: 50
[14]; 63 g ai/ha
  phytotoxicity rating ABUTH: 100
[14]; 250 g ai/ha
  phytotoxicity rating ABUTH: 10
[15]; 63 g ai/ha
  phytotoxicity rating CHEAL: 100
[15]; 250 g ai/ha
  phytotoxicity rating CHEAL: 100
[16]; 63 g ai/ha
  phytotoxicity rating CASOB: 100
[16]; 250 g ai/ha
  phytotoxicity rating CASOB: 100
[17]; 63 g ai/ha
  phytotoxicity rating DIGSA: 40
[17]; 250 g ai/ha
  phytotoxicity rating DIGSA: 30
[18]; 63 g ai/ha, rating scale 0-100 (0 no damage, 100 complete death)
  phytotoxicity rating AMARE: 75
[18]; 250 g ai/ha, rating scale 0-100
  phytotoxicity rating AMARE: 95
[19]; 63 g ai/ha
  phytotoxicity rating IPOHE: 85
[19]; 250 g ai/ha
  phytotoxicity rating IPOHE: 100
[20]; 63 g ai/ha
  phytotoxicity rating SETVI: 40
[20]; 250 g ai/ha
  phytotoxicity rating SETVI: 60
